We go through one molecule from US12583851B2, “Heteroaryl-substituted pyrazine derivatives as pesticides” (Elanco Animal Health GmbH, priority 2019, dated 2026).

What all share (format): in vivo
The test system of assay [1] is adult cat fleas (Ctenocephalides felis). Briefly: Ctenocephalides felis in-vitro contact test, adult cat flea. As to conditions: 1 μg/cm^2 (=100 g/ha), after 48 hours, read-out: efficacy (fleas dead or moribund). An outline of the steps: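 Acetone solution coated onto glass tube walls; 900 ppm gives 5 μg/cm². Once dry, 5–10 adult fleas per tube held at room temperature for 48 h. Efficacy (%) is the share of fleas dead or moribund, i.e. unable to climb away on a 45–50° C heating plate.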

Assay [2] deals with Rhipicephalus (Boophilus) microplus larvae (strain Parkhurst, resistant against synthetic pyrethroids). Briefly: Rhipicephalus (Boophilus) microplus in-vitro contact test, larval cattle tick. The note with it: after 48 hours, read-out: efficacy (larvae dead or moribund). In a few lines:
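Acetone solutions were coated onto glass tube walls (900 ppm gives 5 μg/cm²); after drying, 20–50 pyrethroid-resistant Parkhurst larvae added and held at 27 °C, 85% RH. At 48 h, efficacy as % larvae dead or moribund, judged by loss of negative geotaxis.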

Assay [3] has as its system adult engorged female ticks (Rhipicephalus microplus). Briefly: Rhipicephalus (Boophilus) microplus injection test. The note with it: 168 h, 4 μg/animal, egg deposition after 7 days, read-out: efficacy (infertile eggs). An outline of the steps: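 Efficacy is scored from egg fertility, with 100% meaning every egg infertile and 0% every egg fertile. Five engorged females per test received 1 μL DMSO solution abdominally. Eggs of unclear fertility were kept until hatching, about 42 days.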

Assay [4] has as its system adult brown dog ticks (Rhipicephalus sanguineus). Briefly: Rhipicephalus sanguineus in-vitro contact test, adult brown dog ticks. The note with it: 48 h, 5 μg/cm^2 (=500 g/ha), after 48 hours, read-out: efficacy (ticks dead or moribund). An outline of the steps: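 Acetone solution coated on glass tube inner walls (900 ppm, giving 5 μg/cm^2); after drying, 5–10 adult ticks added and kept 48 h at room temperature. Efficacy scored as percent dead or moribund, i.e., ticks unable to climb away on a 45–50 °C heating plate within 5 min.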

The test system of assay [5] is adult mosquitoes Aedes aegypti strain MONHEIM. As to the kind of experiment: Aedes aegypti test (AEDSAE surface treatment & contact assay). The note with it: 24 hours after contact, read-out: mortality (efficacy). The protocol: Aedes aegypti Test (AEDSAE Surface Treatment & Contact Assay)
(§1) Solvent: Aceton+2000 ppm rapeseed oil methyl ester (RME)
In order to produce a sufficient, active ingredient containing solution it is necessary to solve the test compound in the solvent-mix (acetone at 2 mg/ml/RME 2000 ppm). This solution is pipetted onto a glazed tile and after evaporation of the acetone, adult mosquitoes of the species Aedes aegypti strain MONHEIM are placed onto the dried surface. The exposure time is 30 minutes.
(§2) Mortality in percent (%) is determined 24 hours after contact of the insects to the treated surface. 100% mortality means that all tested insects are dead, whereas 0% means that no insect died.

Assay [6] has as its system adult Blattella germanica strain PAULINIA
As to the kind of experiment: Blattella germanica test (BLTTGE surface treatment & contact assay). As to conditions: surface concentration 20 mg/m^2, 30 minutes exposure, 24 hours after contact, read-out: mortality (efficacy). How it is done:
Blattella germanica Test (BLTTGE Surface Treatment & Contact Assay)
as §1
In order to produce a sufficient, active ingredient containing solution it is necessary to solve the test compound in the solvent-mix (acetone at 2 mg/ml/RME 2000 ppm). This solution is pipetted onto a glazed tile and after evaporation of the acetone, adult animals of the species Blattella germanica strain PAULINIA are placed onto the dried surface. The exposure time is 30 minutes.
as §2

In assay [7] the test system is adult flies Musca domestica strain WHO-N. As to the kind of experiment: Musca domestica test (MUSCDO surface treatment & contact assay). The note with it: surface concentration 4 mg/m^2, 30 minutes exposure, 24 hours after contact, read-out: mortality (efficacy). How it is done: Musca domestica Test (MUSCDO Surface Treatment & Contact Assay)
as §1
In order to produce a sufficient, active ingredient containing solution it is necessary to solve the test compound in the solvent-mix (acetone at 2 mg/ml/RME 2000 ppm). This solution is pipetted onto a glazed tile and after evaporation of the acetone, adult flies of the species Musca domestica strain WHO-N are placed onto the dried surface. The exposure time is 30 minutes.
as §2

Assay [8] has as its system adult mosquitoes Anopheles funestus strain FUMOZ-R. As to the kind of experiment: Anopheles funestus test (ANPHFU surface treatment & contact assay). The note with it: surface concentration 20 mg/m^2, 30 minutes exposure, 24 hours after contact, read-out: mortality (efficacy). How it is done:
Anopheles funestus Test (ANPHFU Surface Treatment & Contact Assay)
as §1
In order to produce a sufficient, active ingredient containing solution it is necessary to solve the test compound in the solvent-mix (acetone at 2 mg/ml/RME 2000 ppm). This solution is pipetted onto a glazed tile and after evaporation of the acetone, adult mosquitoes of the species Anopheles funestus strain FUMOZ-R (Hunt et al., Med. Vet. Entomol. 2005 Sep. 19(3): 271-275) are placed onto the dried surface. The exposure time is 30 minutes.
as §2

Assay [9] deals with adult unfed cat fleas (Ctenocephalides felis). As to the kind of experiment: Ctenocephalides felis oral test. As to conditions: 48 h, 100 ppm in citrated cattle blood, after 2 days. The protocol:
Ctenocephalides felis—Oral Test
Solvent: dimethyl sulfoxide
To produce a suitable preparation of active compound, 10 mg of active compound are dissolved in 0.5 mL solvent, and the concentrate is diluted with citrated cattle blood to the desired concentration.
Approximately 20 adult unfed cat fleas (Ctenocephalides felis) are placed in a flea chamber whose top and bottom is covered with gauze. A chamber whose bottom is sealed with parafilm, is filled with the blood-compound solution and placed on top of the flea chamber, so that the fleas can suck the blood. The blood chamber is heated to 37° C. whereas the flea chamber is kept at room temperature.
After 2 days mortality in % is determined. 100% means all the fleas have been killed; 0% means none of the fleas have been killed.

As to `CC(NC(=O)c1cc(F)cc(C(F)(F)F)c1)c1nccnc1-c1ncccn1` (racemic) [Example I-7, (rac)-3-Fluoro-N-(1-(3-(pyrimidin-2-yl)pyrazin-2-yl)ethyl)-5-(trifluoromethyl)benzamide], the results for the pest or weed control at 1 µg/cm2, 100 g/ha in [1] and in [2] (1 μg/cm^2 (=100 g/ha)) were 90% and 100%, respectively. Also, the pest or weed control at 5 µg/cm2, 500 g/ha in assay [2] (5 μg/cm^2 (=500 g/ha)) and in [4] was 100% in each case. Further, the pest or weed control at 0.004 mg in assay [3] came to 100%. The mortality at 4 mg/m2 in assay [5] (surface concentration 4 mg/m^2, 30 minutes exposure) was 80 to 100%; in assay [7], 80 to 100%. Also, the mortality at 20 mg/m2 was 80 to 100% in assay [5] (surface concentration 20 mg/m^2, 30 minutes exposure); 80 to 100% in assay [6]; 80 to 100% in assay [8]. In addition, the mortality at 100 ppm in [9] amounted to 100%.
